Data as given in patent US7553867B2, “Furan or thiophene derivative and medicinal use thereof” (Takeda Pharmaceutical Company Limited, priority 2002, dated 2009).

What was measured:
[1] = biological target: T1, PPARα-RXRα heterodimer (Homo sapiens, UniProt Q07869); assay: PPARα-RXRα heterodimer ligand activity (luciferase reporter, transfected COS-1 cells); type: cell-based; conditions: luciferase activity at 10 nM compound relative to control without compound as 1
T1 construct: expressed in transfected cells; host or cells: COS-1 (transient; pMCMVneo-hPPARα + pMCMVneo-hRXRα)
T1 sequence (Q07869 1-468): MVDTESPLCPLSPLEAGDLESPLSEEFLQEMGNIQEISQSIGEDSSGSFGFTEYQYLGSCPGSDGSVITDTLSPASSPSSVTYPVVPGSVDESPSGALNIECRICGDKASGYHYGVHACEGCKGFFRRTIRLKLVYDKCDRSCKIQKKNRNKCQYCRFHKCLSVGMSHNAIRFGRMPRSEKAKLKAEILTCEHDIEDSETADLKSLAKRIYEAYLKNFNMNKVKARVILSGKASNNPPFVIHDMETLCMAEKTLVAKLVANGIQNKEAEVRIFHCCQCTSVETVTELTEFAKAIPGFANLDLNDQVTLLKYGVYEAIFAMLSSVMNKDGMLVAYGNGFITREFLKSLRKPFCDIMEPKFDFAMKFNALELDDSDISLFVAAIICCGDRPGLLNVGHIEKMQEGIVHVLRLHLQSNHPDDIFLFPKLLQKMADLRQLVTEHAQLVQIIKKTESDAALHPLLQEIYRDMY
T1 sequence (P19793 1-462 partner): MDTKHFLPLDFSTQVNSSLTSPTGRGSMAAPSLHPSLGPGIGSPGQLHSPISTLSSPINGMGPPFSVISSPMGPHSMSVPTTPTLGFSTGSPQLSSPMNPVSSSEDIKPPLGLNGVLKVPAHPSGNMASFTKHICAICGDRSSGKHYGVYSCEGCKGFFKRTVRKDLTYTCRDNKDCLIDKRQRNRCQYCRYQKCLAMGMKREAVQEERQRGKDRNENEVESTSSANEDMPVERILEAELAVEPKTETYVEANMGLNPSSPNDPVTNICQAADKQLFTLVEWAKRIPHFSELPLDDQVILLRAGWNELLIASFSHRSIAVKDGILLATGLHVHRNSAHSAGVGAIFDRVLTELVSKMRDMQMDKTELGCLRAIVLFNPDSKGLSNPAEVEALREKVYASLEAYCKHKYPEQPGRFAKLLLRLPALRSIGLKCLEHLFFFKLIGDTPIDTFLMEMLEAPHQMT
Description: At 18 to 24 hours after transfection carried out in Reference Example 12a, COS-1 cells were collected, suspended in DMEM medium [manufactured by Life Technologies, Inc., USA] containing 0.1% BSA (fatty acid-free) (produced by Waco Pure Chemicals Industries, Ltd.), and inoculated to each well of a 96-well white plate (produced by Corning, USA) at 1×10^4 cells/well in 80 μl. Subsequently, 20 μl of a test compound was added, and the plate was incubated at 37° C. in a carbon dioxide gas incubator for 36 to 48 hours. After removal of the medium from the 96-well white plate, 40 μl of PicaGene LT 7.5 (produced by Waco Pure Chemicals Industries, Ltd.) diluted twofold with HBSS (HANKS' BALANCED SALT SOLUTION) (produced by BIO WHITTAKER) was added, and after stirring, the luciferase activity was determined using 1420 ARVO Multilabel Counter [produced by Wallac].
The fold induction was calculated from the luciferase activity for the well to which 10 nM of the compound is added, relative to the luciferase activity of a control to which the compound is not added as 1. Results are shown in [Table 3].
A COS-1 cell was inoculated in a cell culture flask (produced by Corning, USA) of 150 cm^2 at 5×10^6 cells/50 ml, and incubated under the conditions of 37° C. and 5% CO2 for 24 hours. Transfection was carried out with lipofectamine (produced by Invitrogen, USA). A transfection mixture solution was prepared by mixing 125 μl of lipofectamine, 100 μl of PLUS Reagent, 2.5 μg of pMCMVneo-hPPARα (obtained in Reference Example 11a), 2.5 μg of pMCMVneo-hRXRα (obtained in Reference Example 4a), 5 μg of reporter plasmid pGL3-4ERPP-TK neo (obtained in Reference Example 5a) and 5 μg of pRL-tk [produced by Promega, USA] with 5 ml of opti-MEM (produced by Invitrogen, USA). To COS-1 cell washed with opti-MEM, the above-mentioned transfection mixture solution and 20 ml of opti-MEM were added, and then incubated under the conditions of 37° C. and 5% CO2 for 3 hours. Then, 25 ml of DMEM medium [manufactured by Life Technologies, Inc., USA] containing 0.1% fatty acid-free bovine serum albumin (BSA) (produced by Waco Pure Chemicals Industries, Ltd.) was added thereto, and then incubated under the conditions of 37° C. and 5% CO2 for 18 to 24 hours.

[2] = biological target: T2, human GPR40 (Homo sapiens, UniProt O14842); assay: Receptor function regulating action (agonist action) for GPR40, intracellular calcium by FLIPR in CHO cells; type: cell-based; conditions: CHO cells expressing human GPR40; change of fluorescence intensity at 30 seconds after reaction initiation
T2 construct: expressed in transfected cells; host or cells: CHO cell strain (No. 104)
Description: CHO cell strain (No. 104) which have had expressed human GPR40 was diluted to contain 3×10^4 cells/100 μL, and added to a Black walled 96-well plate (Costar) at 100 μL/well, and incubated overnight in CO2 incubator. Change of intracellular calcium concentration was measured with FLIPR (Molecular Device). The method is as follows. 50 μg of Fluo-3AM (DOJIN) was dissolved in 21 μL of DMSO (DOJIN), and the same amount of 20% pluronic acid (Molecular Probes) was further added thereto, and the mixture was mixed. The mixture was added to 10.6 mL of an assay buffer [prepared by adding 10 mL of solution which was produced by adding 20 mL of 1 M HEPES (pH 7.4) (DOJIN) to 1 L of HBSS (Invitrogen), dissolving 710 mg of probenecid (Sigma) in 5 mL of 1N NaOH, and further adding 5 mL of the above-mentioned HBSS/HEPES solution thereto and mixing it.] containing 105 μL of fetal bovine serum, to give a fluorescent dye solution. The medium of the cell plate was removed, and immediately, the fluorescent dye solution was added at 100 μL/well, and incubated in CO2 incubator for 1 hour, allowing the fluorescent dye to be incorporated into the cells. The cells after incubation were washed with the above-mentioned assay buffer. The compound to be added to the cells was diluted with the assay buffer to each concentration, added to the plate for the test sample. After conducting the above-mentioned pretreatment, intracellular calcium concentration change after adding the compound was measured in FLIPR to investigate the agonist action. By dose-response curve with the change of fluorescence intensity value at 30 seconds after reaction initiation, EC50 value was calculated.

T2 sequence (O14842 whole entry): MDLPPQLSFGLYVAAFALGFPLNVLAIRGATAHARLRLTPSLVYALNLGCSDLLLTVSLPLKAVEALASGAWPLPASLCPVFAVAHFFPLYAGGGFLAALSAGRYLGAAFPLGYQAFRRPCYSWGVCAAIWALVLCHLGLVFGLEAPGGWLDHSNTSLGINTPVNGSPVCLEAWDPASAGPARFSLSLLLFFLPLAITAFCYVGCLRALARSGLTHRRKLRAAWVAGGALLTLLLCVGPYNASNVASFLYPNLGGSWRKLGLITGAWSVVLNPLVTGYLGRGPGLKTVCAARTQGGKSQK

SMILES | fold induction at 0.01 µM [1] | melting point [°C] | EC50 [2] [nM]
CC(C)c1oc(-c2ccc(C(F)(F)F)cc2)cc1C(=O)Nc1cccc(CSCC(=O)O)c1 [Example 2(1), {[3-({2-Isopropyl-5-[4-(trifluoromethyl)phenyl]-3-furoyl}amino)benzyl]thio}acetic acid] | 10.9 | – | –
Cc1oc(-c2ccc(F)cc2)cc1COc1cccc(CSCC(=O)O)c1 [Example 6(1), [(3-{[5-(4-Fluorophenyl)-2-methyl-3-furyl]methoxy}benzyl)thio]acetic acid] | 8.9 | 120 to 122 | –
Cc1oc(-c2ccc(F)cc2)cc1COc1cccc(CSC(C)(C)C(=O)O)c1 [Example 6, 2-[(3-{[5-(4-Fluorophenyl)-2-methyl-3-furyl]methoxy}benzyl)thio]-2-methylpropionic acid] | 9.3 | – | –
CCCCC/C=C\C/C=C\C/C=C\CCCCC(=O)O [γ-linolenic acid] | – | – | 2000
Cc1cc(OCc2cc(-c3ccc(F)cc3)oc2C)ccc1CCC(=O)O [Example 5(8), 3-(4-{[5-(4-Fluorophenyl)-2-methyl-3-furyl]methoxy}-2-methylphenyl)propionic acid] | – | 123 to 125 | 100
Cc1oc(-c2ccc(F)cc2)cc1C(=O)Nc1cccc(CSCC(=O)O)c1 [Example 1, [(3{[5-(4-Fluorophenyl)-2-methyl-3-furoyl]amino}benzyl)thio]acetic acid] | 10.2 | – | –
CCCCc1oc(-c2ccc(C(F)(F)F)cc2)cc1COc1ccc(CCC(=O)O)c(C)c1 [Example 5(11), 3-[4-({2-Butyl-5-[4-(trifluoromethyl)phenyl]-3-furyl}methoxy)-2-methylphenyl]propionic acid] | – | 118 to 119 | 580
Cc1oc(-c2ccc(C(F)(F)F)cc2)cc1COc1ccc(OCC(=O)O)cc1 [Example 6(7), [4-({2-Methyl-5-[4-(trifluoromethyl)phenyl]-3-furyl}methoxy)phenoxy]acetic acid] | – | 168 to 169 | 290
Cc1cc(OCc2cc(-c3ccc(C(F)(F)F)cc3)oc2C(C)C)ccc1CCC(=O)O [Example 5(10), 3-[4-({2-Isopropyl-5-[4-(trifluoromethyl)phenyl]-3-furyl}methoxy)-2-methylphenyl]propionic acid] | – | 108 to 109 | 870
Cc1oc(-c2ccc(C(F)(F)F)cc2)cc1COc1cccc(CSCC(=O)O)c1 [Example 6(2), {[3-({2-Methyl-5-[4-(trifluoromethyl)phenyl]-3-furyl}methoxy)benzyl]thio}acetic acid] | 9.2 | – | –
CCc1oc(-c2ccc(C(F)(F)F)cc2)cc1COc1cccc(CSCC(=O)O)c1 [Example 5(5)] | 10.1 | – | –
COc1ccc(CCC(=O)O)cc1OCc1cc(-c2ccc(C(F)(F)F)cc2)oc1C [Example 6(82), 3-[4-Methoxy-3-({2-methyl-5-[4-(trifluoromethyl)phenyl]-3-furyl}methoxy)phenyl]propionic acid] | – | 128 to 129 | –
